Where two headings read alike, the source gives them in different places.
Tests used:
CYP1A2 [1] = target: T1, CYP1A2 (Canis lupus familiaris, UniProt P56592); experiment: CYP1A2 fluorometric activity assay in beagle hepatic microsomes; format: in vitro ADME; conditions: beagle, dog, 15 min, 50 µM
T1 construct: endogenous in cells; host or cells: beagle hepatocytes
T1 sequence (P56592 1-512): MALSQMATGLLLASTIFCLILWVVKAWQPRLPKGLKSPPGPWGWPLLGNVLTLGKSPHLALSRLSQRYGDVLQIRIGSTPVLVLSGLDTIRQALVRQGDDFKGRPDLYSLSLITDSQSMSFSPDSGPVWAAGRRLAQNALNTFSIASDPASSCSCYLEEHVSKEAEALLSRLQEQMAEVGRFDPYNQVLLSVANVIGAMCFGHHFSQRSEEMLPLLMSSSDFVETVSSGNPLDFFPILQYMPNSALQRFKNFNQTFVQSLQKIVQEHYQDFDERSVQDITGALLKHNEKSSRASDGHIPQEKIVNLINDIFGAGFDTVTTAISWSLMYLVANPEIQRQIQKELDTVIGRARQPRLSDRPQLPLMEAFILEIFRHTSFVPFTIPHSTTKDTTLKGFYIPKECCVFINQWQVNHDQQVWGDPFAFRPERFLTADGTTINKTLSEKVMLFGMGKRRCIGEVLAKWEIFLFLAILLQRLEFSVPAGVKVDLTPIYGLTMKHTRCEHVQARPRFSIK
Experimental: The Biovision CYP assay (BioVision, Inc., Kampenhout, Belgium) utilizes a non-fluorescent CYP1A2 substrate capable of transforming into a highly fluorescent metabolite, which can be detected in the visible range. α-naphthoflavone was used as a CYP1A2 reference inhibitor at 6 µM during the experiments. Rat (Sprague–Dawley) and beagle (Gibco, Biocenter, Szeged, Hungary, protein concentration: 20 mg/mL) hepatic microsomal preparations were prepared separately by mixing 25 µL of the obtained rat or beagle microsomal suspension with 2425 µL assay buffer and with 50 µL NADPH generating system (100×). In the case of the cynomolgus monkey microsomal suspension (Primacyt, Schwerin, Germany, protein concentration: 5 mg/mL), the following volumes were applied: in addition to 100 µL of monkey microsomal suspension, the amount of assay buffer and the NADPH generating system were adjusted in order to ensure the original ratios of these components to reach a final volume of 2500 µL. Rat, beagle, and cynomolgus monkey microsomal suspension aliquots (50 µL) were treated with the protease inhibitor 20 µL, 0–1000 µM), the reference compound α-naphthoflavone (20 µL, 30 µM), or the assay buffer without test compounds (20 µL, background control) for 15 min at 37 °C. After incubation, 30 µL of the appropriate CYP1A2 substrate/NADP+ mixture was added to each well, yielding a final reaction volume of 100 µL/well. The protein contents of the obtained microsomes were analysed using bicinchoninic acid protein assay kit (Pierce BCA kit, Thermo Fisher Scientific, Waltham, MA, USA). […] The fluorescence intensities were measured with a fluorometer (Victor X2 2030, Perkin Elmer, Waltham, MA, USA), using λEx/Em = 406/468 nm.

CYP1A2 [2] = target: T1, CYP1A2; format: cell-based; conditions: dog, 2 h
Experimental: For the measurements of CYP1A2 activities, hepatocytes were grown on 24-well collagen-coated membrane inserts (Costar Transwell-PTFE membrane, 6.5 mm, pore size: 0.4 µm, Merck, Darmstadt, Germany). […] The determination of the CYP1A2 activities were performed using the P450-Glo CYP450 Assay (Promega, Madison, WI, USA) according to the manufacturer’s instructions.

beagle hepatocytes = experiment: MTS cytotoxicity assay in beagle primary hepatocytes; format: cell-based; conditions: 50 μM and 100 μM, 24 h
Experimental: (§1) Rat, beagle, and cynomolgus monkey cryopreserved primary hepatocytes were obtained from Primacyt Cell Culture Company (Schwerin, Germany). The thawing, plating, and maintenance media were purchased from Lonza Group Ltd. (Biocenter Ltd., Szeged, Hungary). Influence of inhibitors MI-432 and MI-1900 on the viability of primary […] hepatocytes was tested. Hepatocytes, grown on a 96-well plate for 24 h, were incubated with the inhibitors at 0, 50, and at 100 µM for 24 h in treated groups. The control cells were incubated only with cell maintenance medium. After removal of the medium and three-fold washing of the cells with phosphate-buffered saline (PBS), 20 μL aliquots of CellTiter 96 AQueous one solution (MTS, Promega, Bioscience, Budapest, Hungary) were pipetted into a 96-well plate, each containing 100 μL of phenol red free medium. The plate was incubated with dye for 2 h. Viability of hepatocytes was measured at 490 nm using an EZ Read Biochrom 400 microplate reader.

rat hepatocytes = experiment: MTS cytotoxicity assay in rat primary hepatocytes; format: cell-based; conditions: 50 μM and 100 μM, 24 h
Experimental: as §1

[3] = test system: cynomolgus monkey hepatocytes; experiment: MTS cytotoxicity assay in cynomolgus monkey primary hepatocytes; format: cell-based; conditions: 50 μM and 100 μM, 24 h
Experimental: as §1

[4] = test system: intestinal epithelial cells (HIEC and IPEC-J2) and primary human hepatocytes (PHH); conditions: up to a concentration 50 μM; cited from earlier work
[5] = test system: intestinal epithelial cells; conditions: up to a concentration 50 μM; cited from earlier work

Compound: N=C(N)c1cccc(C[C@H](NS(=O)(=O)c2cccc(-c3ccc(Cl)cc3Cl)c2)C(=O)N2CCC(CCN)CC2)c1 [MI-432]
- beagle hepatic microsomal CYP1A2 isoenzyme activity (CYP1A2 [1]): reduced the activity of CYP1A2
- CYP1A2 function in beagle hepatocytes (CYP1A2 [2]; 20 µM): significantly inhibited CYP1A2 function
- CYP1A2 function in beagle hepatocytes (CYP1A2 [2]; 50 µM): significantly inhibited CYP1A2 function

Compound: COc1ccc(-c2cccc(S(=O)(=O)N[C@@H](Cc3cccc(C(=N)N)c3)C(=O)N3CCN(C(=O)NC4CCCCC4)CC3)c2)c(OC)c1 [MI-1900]
- cell viability vs control (beagle hepatocytes): No significant differences
- cell viability vs control (rat hepatocytes): No significant differences
- cell viability vs control [3]: No significant differences
- cell death [4]: did not cause significant cell death
- extracellular hydrogen peroxide levels [5]: did not result in elevation in extracellular hydrogen peroxide levels
